Measurements from patent publication US4552878A, “Benzo- and thieno-triazine-1,2,3 ones-4” (Lipha, Lyonnaise Industrielle Pharmaceutique, priority 1982, dated 1985).
Structures can show the parent of a compound that is named as a salt.

Experiments:
[1] = Acute oral toxicity, lethal doses 50 (LD50); conditions: mouse, in vivo
[2] = tested on: central effects of 5-hydroxytryptophan; experiment: Potentiation of the central effects of 5-hydroxytryptophan (5-HTP); format: in vivo; conditions: Mus musculus, ip; Swiss mice, I.P., 30 minutes before 300 mg/kg 5-HTP I.P.; observed 30 min later for 1 min; read-out: Potentiation of the 5-HTP ED50 DE50
Procedure: This potentiation objectifying the axonal blocking of the reabsorption of the seratonin at the serotoninergic nerve ends was studied by the method described by T. M. Pugsley and […] The mice are observed 30 min later, for 1 min, during which the following sterotyped movements are classified: extension of the hind paws, trembling, excitement, head shaking.

With `O=c1c2ccsc2nnn1CCCN1CCN(c2cccc(Cl)c2)CC1` [Example 23, [[(Chloro-3 phenyl)-4-piperazinyl-1]3 propyl]-3-3H-thieno[2,3-d]triazine-1,2,3 one-4 hydrochloride] the LD50 [1] was 1060 mg/kg and the ED50 [2] was 3 mg/kg.

`Cl.O=c1n(CCCN2CCN(c3cccc(Cl)c3)CC2)nc2ccccn12` [Trazodone Hydrochloride, 2-[3-[4-(3-chlorophenyl)-1-piperazinyl]propyl]-1,2,4-triazolo[4,3-a]pyridin-3 (2H)-one hydrochloride, reference compound] gave an LD50 [1] of 650 mg/kg.

For `O=c1c2ccccc2nnn1CCCN1CCN(c2cccc(Cl)c2)CC1` [Example 1, [[(chloro-3 phenyl)-4 piperazinyl-1]-3 propyl]-3-3H-benzotriazine-1,2,3 one-4, hydrochloride], the LD50 [1] was over 3200 mg/kg and the ED50 [2] was 3 mg/kg.

For `Cc1ccc2nnn(CCCN3CCN(c4cccc(Cl)c4)CC3)c(=O)c2c1` [Example 20, [[(Chloro-3 phenyl)-1 piperazinyl-1]-3 propyl]-3 methyl-6-3H-benzotriazine-1,2,3 one-4, hydrochloride], the LD50 [1] was over 3200 mg/kg and the ED50 [2] was 8 mg/kg.

With `COc1ccc(N2CCN(CCCn3nnc4ccccc4c3=O)CC2)cc1` [Example 16, [[(Methoxy-4 phenyl)-4 piperazinyl-1]-3propyl]-3-3H-benzotriazine-1,2,3 one-4] the ED50 [2] was 11 mg/kg.

In the case of `O=c1c2cc(Cl)ccc2nnn1CCCN1CCN(c2ccccc2)CC1` [Example 28, Chloro-6[(phenyl-4 piperazinyl-1)-3 propyl]-3-3H-benzotriazine-1,2,3 one-4 dihyrochloride], the ED50 [2] is reported as 5 mg/kg.

Work on `COc1ccc(N2CCN(CCCn3nnc4ccccc4c3=O)CC2)cc1OC` [Example 29, [[(Dimethoxy-3,4 phenyl)-4 piperazinyl-1]-3 propyl]-3-3H-benzotriazine-1,2,3 one-4 dihydrochloride] yielded an ED50 [2] of 12 mg/kg.

Work on `O=c1c2ccccc2nnn1CCCN1CCN(c2ccccc2)CC1` [Example 11, [(Phenyl-4 piperazinyl-1)-3 propyl]-3-3H-benzotriazine-1,2,3 one-4 hydrochloride] yielded an LD50 [1] of 1000 mg/kg and an ED50 [2] of 8 mg/kg.

`O=c1c2ccccc2nnn1CCCN1CCN(c2ccc(F)c(Cl)c2)CC1` [Example 27, [[(Chloro-3 fluoro-4 phenyl)-4 piperazinyl-1]-3 propyl]-3-3H-benzotriazine-1,2,3 one-4 hydrochloride] showed an ED50 [2] of 8 mg/kg.

`O=c1c2ccccc2nnn1CCCN1CCN(c2cccc(F)c2)CC1` [Example 10, [[(Fluoro-3phenyl)-4 piperazinyl-1]-3 propyl]-3H-benzotriazine-1,2,3 one-4, hydrochloride] gave an LD50 [1] of 1500 mg/kg and an ED50 [2] of 14 mg/kg.

Molecule `COc1cccc(N2CCN(CCCn3nnc4ccccc4c3=O)CC2)c1` [Example 15, [[(Methoxy-3 phenyl)-4 piperazinyl-1]-3 propyl]-3-3H-benzotriazine-1,2,3 one-4] has an ED50 [2] of 9 mg/kg.

With `Cc1ccccc1N1CCN(CCCn2nnc3ccccc3c2=O)CC1` [Example 9, [[(Methyl-2 phenyl)-4 piperazinyl-1]-3 propyl]-3-3H-benzotriazine-1,2,3 one-4 hydrochloride] the ED50 [2] was 5 mg/kg.

For `O=c1c2ccccc2nnn1CCCN1CCN(c2ccccc2Cl)CC1` [Example 6, [[(Chloro-2 phenyl-4 piperazinyl-1]-3 propyl]3-3H-benzotriazine-1,2,3 one 4, hydrochloride], the ED50 [2] was 12 mg/kg.

For `O=c1c2ccc(Cl)cc2nnn1CCCN1CCN(c2cccc(Cl)c2)CC1` [Example 19, Chloro-7 [[(chloro-3 phenyl)-4 piperazinyl-1]-3 propyl]-3-3H-benzotriazine-1,2,3 one-4 hydrochloride], the ED50 [2] was 10 mg/kg.
